How the values were obtained:
CD44v6 [1] = target: T1, CD44v6 (Homo sapiens, UniProt P16070); assay: Peptide blocking of EGF/TGFα-induced Erk phosphorylation in MCF7 cells (Western blot); format: cell-based; conditions: peptide 100 ng/ml; for EGF-induced activation of the ErbB receptors (Erk phosphorylation): MCF7, serum-starved, EGF 20 ng/ml
T1 construct: endogenous in cells; host or cells: MCF7; MCF10A
Procedure: 3×10^5 were seeded per well of a 6-well plate and serum-starved for 24 hours. Afterwards the medium inside of each well was reduced to 1 ml and the respective peptide (v6 (both peptides of SEQ ID No.: 2 and 6 were tested), or ctrl peptide) was added at a concentration of 100 ng/ml. The cells then were incubated together with the peptide at 37° C. for 5 mins. Ligand concentration for all peptide blocking experiments was 20 ng/ml.
To assay protein expression via Western blot cells were washed 1× with PBS and afterwards lysed in 2×Laemmli sample buffer (160 mM Tris-HCl pH 6.8, 4% SDS, 16% glycerol, 0.1M DTT, 0.01% bromphenol blue). The sample was sheared through a 26 gauge needle. In succession the lysates were boiled for 5 mins at 99° C. in order to denature the proteins in the sample and then spun down at 10 000 rmp for 1 min Eventually the samples were loaded onto an SDS-PAGE gel.
To test whether CD44v6 acts as a co-receptor in MCF7 or MCF10A cells, a peptide blocking experiment using peptides of SEQ ID NO: 6 was conducted. The cells were serum-starved for 24 h and then pre-incubated with a v6 peptide or an unspecific control peptide. Then, the cells were induced with EGF or HGF as a control. As a read-out for ErbB-activation, the phosphorylation of the Erk-kinase was used.

CD44v6 [2] = assay: HGF-induced activation of Met and Erk in HeLa cells (Western blot); format: cell-based, human
Procedure: FIG. 28: A: Activation of Met and signal transduction induced by HGF depends on CD44v6 in L3.6pl cells. L3.6pl cells were treated with the human v6 peptide (human v6 14mer) or the rat v6 peptide as control prior to induction with 10 ng/ml HGF. Activation of Met and ERK was determined in western blot. The numbers refer to the fold induction. The experiment was repeated at least 5 times. B: Activation of c-Met and signal transduction induced by HGF depends on CD44v6 HeLa cells. Starved HeLa cells respectively HT29 cells were incubated with the v6 peptide (human v6 14mer) or a control peptide for 10 minutes at 37° C. and then induced with 25 ng/ml of HGF for the indicated time points. Cells were then either lysed and the lysates were subjected to Western Blot analysis for phospho-Met and Met. C: Activation of c-Met and signal transduction induced by HGF depends on CD44v6 in HT29 cells. HGF-induced c-Met and Erk phosphorylation in HT29 was determined as described above using phospho-specific antibodies. […]
The contribution of CD44v6 to Met signaling in the human epithelial pancreatic cancer cells L3.6pl (derived from Colo 357), the cervix carcinoma cells HeLa and the colon cancer cells HT29 were analysed using the CD44v6 peptide (v6 14mer; v6 5mer tested as well, data not shown).

L3.6pl cells [3] = assay: Human orthotopic pancreatic cancer model, L3.6pl cells in nude mice, treatment from day 7; format: in vivo, mouse; conditions: nude mice
Outline: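 L3.6pl pancreatic carcinoma cells (passage 24-26) were injected orthotopically into the pancreas of male nude mice. From day 7, groups of 15 received i.p. human v6 peptide or rat control peptide (20 μg, 14mer or 5mer), three times weekly for 21 days. Animals were killed two days after the last dose; tumors were analyzed by P-Met, Met, CD31 and caspase immunostaining.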

L3.6pl cells [4] = assay: Human VEGF in cell culture supernatant of L3.6pl cells (Quantikine immunoassay); format: cell-based; conditions: peptide 200 ng/ml in the culture medium, 5 days
Procedure: Determination of human HGF and VEGF levels in cell culture medium of L3.6pl cells were performed using the Quantikine Human HGF Immunoassay and Quantikine Human VEGF Immunoassay from Roche (Mannheim, GER) and R&D Systems (Wiesbaden, Germany) For this purpose 3×10^6 cells were cultured for 5 days in a 15 cm plate in the presence of the respective peptides as indicated. The supernatant by centrifugation (20 ml) was centrifuged (1200 rpm) and the assay was performed according to manufacturer's instructions.

[5] = orthotopic L3.6pl, 20 μg i.p. three times per week

T1 sequence (P16070 21-742): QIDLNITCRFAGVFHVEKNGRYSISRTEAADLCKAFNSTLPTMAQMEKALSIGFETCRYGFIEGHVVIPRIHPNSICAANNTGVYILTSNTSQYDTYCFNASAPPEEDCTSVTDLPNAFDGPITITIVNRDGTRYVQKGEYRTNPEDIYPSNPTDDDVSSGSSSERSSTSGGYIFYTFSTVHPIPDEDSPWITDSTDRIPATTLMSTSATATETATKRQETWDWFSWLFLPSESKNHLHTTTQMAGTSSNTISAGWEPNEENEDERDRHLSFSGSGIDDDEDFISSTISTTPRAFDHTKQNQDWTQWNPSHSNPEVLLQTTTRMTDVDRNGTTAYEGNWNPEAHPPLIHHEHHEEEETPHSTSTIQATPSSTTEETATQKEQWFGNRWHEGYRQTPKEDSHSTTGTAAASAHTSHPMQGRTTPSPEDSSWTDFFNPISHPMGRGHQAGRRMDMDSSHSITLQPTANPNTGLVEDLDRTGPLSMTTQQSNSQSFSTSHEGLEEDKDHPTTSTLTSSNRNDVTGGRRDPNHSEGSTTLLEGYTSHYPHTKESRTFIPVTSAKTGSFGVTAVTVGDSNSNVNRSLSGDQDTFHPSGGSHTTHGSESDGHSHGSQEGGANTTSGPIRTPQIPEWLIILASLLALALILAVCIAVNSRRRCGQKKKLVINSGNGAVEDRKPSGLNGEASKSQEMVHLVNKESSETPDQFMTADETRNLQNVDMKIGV

In the case of “KEQWFGNRWHEGYR [SEQ ID NO: 6, human CD44v6 14mer peptide]”, the “EGF-induced activation of the ErbB receptors (Erk phosphorylation)” value (CD44v6 [1]) is reported as “blocking of Erk phosphorylation”, the “EGF-induced activation of the ErbB receptors (Erk phosphorylation)” value (CD44v6 [1]; listed as CD44v6-specific peptide) is reported as “could be blocked” and the “Erk phosphorylation upon TGFα induction” value (CD44v6 [1]; MCF7, TGFα 20 ng/ml) is reported as “not upon TGFα induction”. For the same sequence, the “HGF-induced activation of downstream target Erk” value (CD44v6 [2]; peptide before induction with HGF) was “able to prevent activation”, the “HGF-induced activation of Met” value (CD44v6 [2]; starved, peptide 10 min 37° C., HGF 25 ng/ml) was “able to prevent activation” and the “Tumor angiogenesis (CD31 staining, vessel number and vessel size)” value (L3.6pl cells [3]; orthotopic L3.6pl tumors) was “decreased angiogenesis as exemplified by a reduced vessel number and vessel size”. The “Metastasis formation (liver)” value (L3.6pl cells [3]; [5]) was “completely inhibited metastasis formation within the liver”, the “Outgrowth of the primary tumor in the pancreas” value (L3.6pl cells [3]; [5]) was “strongly repressed” and the “Met activation in the tumor (phospho-Met immunofluorescence)” value (L3.6pl cells [3]; orthotopic L3.6pl, 20 μg i.p. three times per week for three weeks) was “completely repressed Met activation”. The “hVEGF secretion by L3.6pl cells” value (L3.6pl cells [4]) was “can be blocked”.
